Test results published in patent US10829492B2, “Amino pyrazolopyrimidine compound used as neurotrophic factor tyrosine kinase receptor inhibitor” (CHIA TAI TIANQING PHARMACEUTICAL GROUP CO., LTD., priority 2016, dated 2020).

Tests used:
[1] = target: TrkA^G667C (Kinase domain) kinase (Homo sapiens (Human), UniProt P04629, G667C); assay: HTRF assay for inhibitory activity (IC50) against TrkA^G667C kinase; type: biochemical; settings: mutant TrkA kinase, ATP 15 μM, kinase 0.5 nM
Description: 3. Assay for Inhibitory Activity (IC50) Against TrkA^G667C Kinase
TrkA^G667C (Kinase domain) kinase was expressed in Sf9 cells (purchased from Invitrogen) using pIEX-Bac-4 (purchased from Merck), and purified by using Ni column affinity chromatography on AKTA Purifier (GE company). A testing platform for TrkA^G667C kinase activity was established based on Homogeneous Time-Resolved Fluorescence (HTRF) assay, and the activities of the compounds were tested using the platform. The compounds were subjected to five-fold gradient dilution with 100% DMSO with a starting concentration of 1 mM (8 concentrations in total). 4 μL of diluted sample for each concentration was added to 96 μL of reaction buffer (50 mM HEPES, pH7.4, 5 mM MgCl2, 1 mM NaVO3, 0.001% Tween-20, 0.01% BSA and 1 mM DTT) and mixed homogeneously to be used as a 4* compound. The reaction buffer was used to formulate 2* TrkA^G667C kinases (the final concentration was 0.5 nM) and a 4* substrate mixture (ATP+TK peptide) (wherein, the final concentration of ATP was 15 μM; TK peptide, HTRF® KinEASE™-TK, was purchased from Cisbio, and the final concentration thereof was 100 nM) for use. 2.5 μL of the 4* compound was added to a 384-well plate (OptiPlate-384, purchased from PerkinElmer), and then 5 μL of the 2* TrkA^G667C kinases were added, and mixed homogeneously by centrifugation. Then 2.5 μL of the 4* substrate mixture was added to initiate the reaction (the total reaction volume is 10 μL). The 384-well plate was placed in an incubator to incubate for 60 min at 23° C. Then the reaction was terminated by adding 5 μL of Eu3+ cryptate-labeled anti-phosphotyrosine antibody (HTRF KinEASE™-TK, purchased from Cisbio), and 5 μL of Streptavidin-XL-665 (HTRF® KinEASE™-TK, purchased from Cisbio). After incubated for 1 h in the incubator, the fluorescence values were read on Envision (purchased from PerkinElmer). The excitation wavelength was 320 nm, and the emission wavelengths for detection were 665 nm and 620 nm. The enzymatic activity was represented by a ratio of the two readout at the two emission wavelengths. […]

TrkB kinase = TrkB kinase (Homo sapiens (Human), UniProt Q16620); assay: HTRF assay for inhibitory activity (IC50) against NTRK kinase, TrkB; type: biochemical; settings: ATP 50 μM, kinase 0.1 nM
Sequence of TrkB kinase (Q16620 32-822): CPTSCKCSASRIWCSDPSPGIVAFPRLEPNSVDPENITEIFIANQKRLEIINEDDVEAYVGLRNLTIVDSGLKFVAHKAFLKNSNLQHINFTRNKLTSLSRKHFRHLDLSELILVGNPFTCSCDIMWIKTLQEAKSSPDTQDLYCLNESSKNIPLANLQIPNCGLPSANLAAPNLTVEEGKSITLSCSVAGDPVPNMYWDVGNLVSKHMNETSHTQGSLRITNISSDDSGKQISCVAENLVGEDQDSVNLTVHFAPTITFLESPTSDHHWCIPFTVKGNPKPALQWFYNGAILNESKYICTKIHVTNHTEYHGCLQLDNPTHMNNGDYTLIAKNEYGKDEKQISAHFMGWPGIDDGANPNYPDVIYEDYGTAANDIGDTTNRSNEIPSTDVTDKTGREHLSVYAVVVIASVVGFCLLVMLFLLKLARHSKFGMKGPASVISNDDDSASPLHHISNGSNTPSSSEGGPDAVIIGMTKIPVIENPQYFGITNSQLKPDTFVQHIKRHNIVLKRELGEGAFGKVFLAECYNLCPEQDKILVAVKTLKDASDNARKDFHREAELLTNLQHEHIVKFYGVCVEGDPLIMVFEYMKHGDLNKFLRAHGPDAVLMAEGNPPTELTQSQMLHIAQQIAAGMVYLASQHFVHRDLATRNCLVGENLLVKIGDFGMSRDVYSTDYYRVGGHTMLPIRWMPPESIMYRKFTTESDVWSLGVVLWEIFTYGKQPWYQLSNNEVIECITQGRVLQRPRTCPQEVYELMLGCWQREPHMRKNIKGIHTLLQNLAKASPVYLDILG
Description: (§1) 1. Assay for Inhibitory Activity (IC50) Against NTRK Kinase
(§2) A testing platform for TrkA, TrkB and TrkC kinase activity was established based on Homogeneous Time-Resolved Fluorescence (HTRF) assay, and the activities of the compounds were tested using the platform. The compounds were subjected to three-fold gradient dilution with 100% DMSO with a starting concentration of 1 mM (11 concentrations in total). 4 μL of diluted sample for each concentration was added to 96 μL of reaction buffer (50 mM HEPES, pH7.4, 5 mM MgCl2, 1 mM NaVO3, 0.001% Tween-20, 0.01% BSA and 1 mM DTT) and mixed homogeneously to be used as a 4* compound. The reaction buffer was used to formulate 2* TrkA, TrkB and TrkC kinases (purchased from Carna Biosciences 08-186, 08-187, 08-197, and the final concentrations thereof were 0.5 nM, 0.1 nM, and 1 nM, respectively) and 4* substrate mixture (ATP+TK peptide) (wherein the final concentrations of ATP were 40 μM, 50 μM, and 20 μM, respectively; TK peptide, HTRF® KinEASE™-TK, was purchased from Cisbio, and the final concentration thereof was 100 nM) for use. 2.5 μL of the 4* compound was added to a 384-well plate (OptiPlate-384, purchased from PerkinElmer), and then 5 μL of the 2* TrkA, TrkB and TrkC kinases were added, and mixed homogeneously by centrifugation. Then 2.5 μL of the 4* substrate mixture was added to initiate the reaction (the total reaction volume is 10 μL). The 384-well plate was placed in an incubator and incubated for 60 min at 23° C. Then the reaction was terminated by adding 5 μL of Eu3+ cryptate-labeled anti-phosphotyrosine antibody (HTRF® KinEASE™-TK, purchased from Cisbio), and 5 μL of Streptavidin-XL-665 (HTRF® KinEASE™-TK, purchased from Cisbio). After incubated for 1 hr in the incubator, the fluorescence values were read on Envision (purchased from PerkinElmer). The excitation wavelength was 320 nm, and the emission wavelengths for detection were 665 nm and 620 nm. The enzymatic activity was represented by a ratio of the two readout at the two emission wavelengths. The enzymatic activity for each compound was tested at 11 concentrations, and IC50 values of the compounds were obtained by calculating the data using GraFit6.0 software (Erithacus Software).

TrkA kinase = TrkA kinase (Homo sapiens (Human), UniProt P04629); assay: HTRF assay for inhibitory activity (IC50) against NTRK kinase, TrkA; type: biochemical; settings: kinase 0.5 nM
Sequence of TrkA kinase (P04629 33-796): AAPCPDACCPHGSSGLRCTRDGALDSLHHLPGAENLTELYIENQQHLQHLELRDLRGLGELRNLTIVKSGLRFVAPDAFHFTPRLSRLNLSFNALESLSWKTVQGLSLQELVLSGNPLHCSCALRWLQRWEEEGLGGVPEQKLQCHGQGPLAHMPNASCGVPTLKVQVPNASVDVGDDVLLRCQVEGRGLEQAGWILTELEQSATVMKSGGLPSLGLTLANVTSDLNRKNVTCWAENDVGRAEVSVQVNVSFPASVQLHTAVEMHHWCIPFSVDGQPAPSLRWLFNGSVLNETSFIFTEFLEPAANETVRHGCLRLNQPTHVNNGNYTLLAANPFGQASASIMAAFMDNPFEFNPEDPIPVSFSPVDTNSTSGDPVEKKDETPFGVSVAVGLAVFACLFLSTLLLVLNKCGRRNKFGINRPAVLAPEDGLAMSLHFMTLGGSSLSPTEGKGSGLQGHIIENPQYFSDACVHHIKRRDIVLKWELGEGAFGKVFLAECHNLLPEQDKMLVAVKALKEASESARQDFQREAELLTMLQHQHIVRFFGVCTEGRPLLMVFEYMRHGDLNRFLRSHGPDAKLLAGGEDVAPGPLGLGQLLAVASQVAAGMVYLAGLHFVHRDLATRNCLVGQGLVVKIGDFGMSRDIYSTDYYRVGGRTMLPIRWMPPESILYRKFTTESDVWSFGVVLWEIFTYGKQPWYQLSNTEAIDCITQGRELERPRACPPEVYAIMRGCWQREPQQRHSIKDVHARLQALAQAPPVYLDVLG
Description: as §1, §2

JAK2 kinase = JAK2 kinase (Homo sapiens (Human), UniProt O60674); assay: HTRF assay for inhibitory activity (IC50) against JAK2 kinase; type: biochemical; settings: ATP 5 μM, kinase 0.05 nM
Sequence of JAK2 kinase (O60674 whole entry): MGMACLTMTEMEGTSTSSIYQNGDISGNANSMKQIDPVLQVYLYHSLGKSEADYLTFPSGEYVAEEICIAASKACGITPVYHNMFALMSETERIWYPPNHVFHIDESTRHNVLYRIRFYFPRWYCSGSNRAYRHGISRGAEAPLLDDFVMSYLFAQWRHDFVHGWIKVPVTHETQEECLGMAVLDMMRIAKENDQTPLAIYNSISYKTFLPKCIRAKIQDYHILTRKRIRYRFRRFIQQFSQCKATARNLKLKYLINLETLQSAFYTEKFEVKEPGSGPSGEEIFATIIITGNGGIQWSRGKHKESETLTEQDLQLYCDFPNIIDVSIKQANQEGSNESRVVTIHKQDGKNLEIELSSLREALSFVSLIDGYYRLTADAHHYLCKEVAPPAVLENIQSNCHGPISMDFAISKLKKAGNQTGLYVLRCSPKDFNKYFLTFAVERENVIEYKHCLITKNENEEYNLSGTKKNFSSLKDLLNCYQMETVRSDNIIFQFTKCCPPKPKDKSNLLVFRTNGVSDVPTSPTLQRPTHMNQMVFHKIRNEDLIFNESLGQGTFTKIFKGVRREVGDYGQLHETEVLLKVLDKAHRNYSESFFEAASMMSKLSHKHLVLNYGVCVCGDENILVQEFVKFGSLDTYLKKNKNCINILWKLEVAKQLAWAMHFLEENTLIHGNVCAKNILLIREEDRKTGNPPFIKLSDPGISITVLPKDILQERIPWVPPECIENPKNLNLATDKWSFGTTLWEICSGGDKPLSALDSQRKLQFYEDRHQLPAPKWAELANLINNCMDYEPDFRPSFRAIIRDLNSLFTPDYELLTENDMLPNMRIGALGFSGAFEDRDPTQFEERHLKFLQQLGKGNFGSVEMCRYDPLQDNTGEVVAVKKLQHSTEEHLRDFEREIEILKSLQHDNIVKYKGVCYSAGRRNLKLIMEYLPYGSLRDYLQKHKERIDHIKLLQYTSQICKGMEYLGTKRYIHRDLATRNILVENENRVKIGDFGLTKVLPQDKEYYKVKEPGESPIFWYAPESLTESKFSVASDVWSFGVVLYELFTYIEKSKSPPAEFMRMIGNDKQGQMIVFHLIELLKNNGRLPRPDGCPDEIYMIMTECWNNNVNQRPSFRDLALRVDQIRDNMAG
Description: 2. Assay for Inhibitory Activity (IC50) Against JAK2 Kinase
A testing platform for JAK2 kinase activity was established based on Homogeneous Time-Resolved Fluorescence (HTRF) assay, and the activities of the compounds were tested using the platform. The compounds were subjected to three-fold gradient dilution with 100% DMSO with a starting concentration of 1 mM (11 concentrations in total). 4 μL of diluted sample for each concentration was added to 96 μL of reaction buffer (50 mM HEPES, pH7.4, 10 mM MgCl2, 1 mM EDTA, 0.01% Tween-20, 0.005% BSA and 2 mM DTT) and mixed homogeneously. 2.5 μL of the resulting liquid was then added to a 384-well plate (OptiPlate-384, purchased from PerkinElmer), and 5 μL of JAK2 kinase (purchased from Carna, and the final concentration thereof is 0.05 nM) was added, and mixed homogeneously by centrifugation. Then 2.5 μL of a mixture of ATP (the final concentration is 5 μM) and TK peptide (HTRF® KinEASE™-TK, purchased from Cisbio, and the final concentration is 100 nM) was added to initiate the reaction (the total reaction volume is 10 μL). The 384-well plate was placed in an incubator to incubate for 120 min at 23° C. Then the reaction was terminated by adding 5 μL of Eu3+ cryptate-labled anti-phosphotyrosine antibody (purchased from Cisbio), and 5 μL of Streptavidin-XL-665 (HTRF® KinEASE™-TK, purchased from Cisbio). After incubated for 1 hr in the incubator, the fluorescence values were read on Envision (purchased from PerkinElmer). The excitation wavelength was 320 nm, and the emission wavelengths for detection were 665 nm and 620 nm. The enzymatic activity was represented by a ratio of the two readout at the two emission wavelengths. The enzymatic activity for each compound was tested at 11 concentrations, and IC50 values of the compounds were obtained by calculating the data using GraFit6.0 software (Erithacus Software).

TrkC kinase = TrkC kinase (Homo sapiens (Human), UniProt Q16288); assay: HTRF assay for inhibitory activity (IC50) against NTRK kinase, TrkC; type: biochemical; settings: ATP 20 μM, kinase 1 nM
Sequence of TrkC kinase (Q16288 32-839): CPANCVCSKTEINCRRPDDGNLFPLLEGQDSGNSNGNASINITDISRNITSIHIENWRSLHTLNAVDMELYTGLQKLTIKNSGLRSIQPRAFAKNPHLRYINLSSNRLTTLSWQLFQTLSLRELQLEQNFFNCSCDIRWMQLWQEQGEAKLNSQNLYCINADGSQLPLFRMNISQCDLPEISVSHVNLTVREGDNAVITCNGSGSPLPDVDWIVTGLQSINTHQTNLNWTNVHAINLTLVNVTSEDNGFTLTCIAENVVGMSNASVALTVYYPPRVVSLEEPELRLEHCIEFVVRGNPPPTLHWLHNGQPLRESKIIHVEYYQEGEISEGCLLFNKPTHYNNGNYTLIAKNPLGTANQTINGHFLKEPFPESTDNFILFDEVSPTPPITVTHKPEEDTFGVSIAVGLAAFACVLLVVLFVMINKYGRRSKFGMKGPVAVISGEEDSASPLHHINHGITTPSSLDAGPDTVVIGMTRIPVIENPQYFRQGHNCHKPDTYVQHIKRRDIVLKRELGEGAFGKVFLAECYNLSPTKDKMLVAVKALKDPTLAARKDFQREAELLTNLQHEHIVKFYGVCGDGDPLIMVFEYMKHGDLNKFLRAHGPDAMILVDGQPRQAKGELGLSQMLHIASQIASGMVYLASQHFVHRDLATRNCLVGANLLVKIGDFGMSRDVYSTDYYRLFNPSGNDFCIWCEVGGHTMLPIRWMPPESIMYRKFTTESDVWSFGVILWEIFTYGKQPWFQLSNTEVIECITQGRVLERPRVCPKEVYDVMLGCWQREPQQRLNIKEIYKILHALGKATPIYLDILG
Description: as §1, §2

[2] = Pharmacokinetic assay in rats; type: in vivo; settings: rat, po, male SD rats, 5 mg/kg single intragastric administration, plasma; for AUC(0-inf): read-out: AUCINF_obs
Description: Male SD rats were available from Beijing Vital River Laboratory Animal Technology Co., Ltd. The rats were allocated with three rats per group, and separately administered the suspension of a sample to be tested (5 mg/kg) by single intragastric administration. Before the experiment, the animals were fasted overnight, and the fasting time was from 10 hrs before administration to 4 hrs after administration. After administration, a blood sample was taken at 0.25 hr, 0.5 hr, 1 hr, 2 hrs, 4 hrs, 6 hrs, 8 hrs and 24 hrs. After the animals were narcotized with isoflurane using an anaesthesia machine for small animals, 0.3 mL of whole blood was taken from fundus venous plexus, and placed in a heparin anticoagulant tube. At 4° C., the sample was centrifuged at 4000 rpm for 5 min, and plasma was transferred to a centrifuge tube and preserved at −80° C. until the analysis was started. The sample in plasma was extracted by the protein precipitation method, and the extracted liquid was analyzed by LC/MS/MS.

Sequence of TrkA^G667C (Kinase domain) kinase (P04629 510-781 G667C): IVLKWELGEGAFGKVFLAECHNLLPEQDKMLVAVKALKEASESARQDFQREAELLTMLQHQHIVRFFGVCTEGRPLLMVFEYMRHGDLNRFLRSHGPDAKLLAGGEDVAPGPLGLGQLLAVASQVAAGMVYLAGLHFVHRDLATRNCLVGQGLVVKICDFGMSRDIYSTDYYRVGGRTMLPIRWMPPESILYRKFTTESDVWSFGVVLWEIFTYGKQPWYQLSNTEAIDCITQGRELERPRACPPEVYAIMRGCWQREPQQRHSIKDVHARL

| SMILES | IC50 [1] [nM] | IC50 (TrkB kinase) [nM] | IC50 (TrkA kinase; Table 1, ATP 40 μM) [nM] | IC50 (TrkA kinase; Table 2, ATP 40 μM) [nM] | IC50 (JAK2 kinase) [nM] | IC50 (TrkC kinase) [nM] | Cmax [2] [ng/mL] | Tmax [2] [h] | half-life [2] [h] | AUC(0-inf) [2] [ng·h/mL] |
| --- | --- | --- | --- | --- | --- | --- | --- | --- | --- | --- |
| Nc1nn2ccc(N3CCC[C@@H]3c3cc(F)ccc3F)nc2c1C(=O)N[C@H]1CC[C@H](O)CC1 [Example 12, 2-amino-5-((R)-2-(2,5-difluorophenyl)pyrrolidin-1-yl)-N-((trans)-4-hydroxycyclohexyl)pyrazolo[1,5-a]pyrimidine-3-carboxamide] | < 1 | < 1 | < 1 | < 1 | > 20 | < 1 | – | – | – | – |
| CCOC(=O)c1c(N)nn2ccc(N3CC(F)(F)CC3c3cc(F)ccc3F)nc12 (stereo not drawn) [Example 38, ethyl 2-amino-5-(2-(2,5-difluorophenyl)-4,4-difluoropyrrolidin-1-yl)pyrazolo[1,5-a]pyrimidine-3-carboxylate] | – | – | < 25 | – | – | – | – | – | – | – |
| CN(C)CCNC(=O)c1c(N)nn2ccc(N3CCC[C@@H]3c3cc(F)ccc3F)nc12 [Example 19, (R)-2-amino-5-(2-(2,5-difluorophenyl)pyrrolidin-1-yl)-N-(2-(dimethylamino)ethyl)pyrazolo[1,5-a]pyrimidine-3-carboxamide] | – | – | < 1 | – | – | – | – | – | – | – |
| NC(=O)c1c(N)nn2ccc(N3C[C@@H](F)C[C@@H]3c3cc(F)ccc3F)nc12 [Example 36, 2-amino-5-((2R,4S)-2-(2,5-difluorophenyl)-4-fluoropyrrolidin-1-yl)pyrazolo[1,5-a]pyrimidine-3-carboxamide] | < 10 | < 1 | < 1 | < 1 | > 100 | < 1 | 488 | 1 | 3.09 | 2240 |
| CCOC(=O)c1c(N)nn2ccc(N3CCC[C@@H]3c3cc(F)ccc3F)nc12 [Example 1, ethyl (R)-2-amino-5-(2-(2,5-difluorophenyl)pyrrolidin-1-yl)pyrazolo[1,5-a]pyrimidine-3-carboxylate] | – | – | < 1 | – | – | – | – | – | – | – |
| CNc1nn2ccc(N3CCC[C@@H]3c3cc(F)ccc3F)nc2c1C(N)=O [Example 21, (R)-5-(2-(2,5-difluorophenyl)pyrrolidin-1-yl)-2-(methylamino)pyrazolo[1,5-a]pyrimidine-3-carboxamide] | – | – | < 500 | – | – | – | – | – | – | – |

Now from value to compound:

| IC50 [1] [nM] | IC50 (TrkB kinase) [nM] | IC50 (TrkA kinase; Table 1, ATP 40 μM) [nM] | IC50 (TrkA kinase; Table 2, ATP 40 μM) [nM] | IC50 (JAK2 kinase) [nM] | IC50 (TrkC kinase) [nM] | Cmax [2] [ng/mL] | Tmax [2] [h] | half-life [2] [h] | AUC(0-inf) [2] [ng·h/mL] | SMILES |
| --- | --- | --- | --- | --- | --- | --- | --- | --- | --- | --- |
| – | < 10 | < 1 | < 1 | > 2000 | < 10 | – | – | – | – | NC(=O)c1c(N)nn2ccc(N3CCC[C@@H]3c3cc(F)ccc3F)nc12 [Example 4, (R)-2-amino-5-(2-(2,5-difluorophenyl)pyrrolidin-1-yl)pyrazolo[1,5-a]pyrimidine-3-carboxamide] |
| – | < 10 | < 1 | < 1 | > 500 | < 10 | – | – | – | – | Nc1nn2ccc(N3CCC[C@@H]3c3cc(F)ccc3F)nc2c1C(=O)Nc1ccc(F)cc1 [Example 14, (R)-2-amino-5-(2-(2,5-difluorophenyl)pyrrolidin-1-yl)-N-(4-fluorophenyl)pyrazolo[1,5-a]pyrimidine-3-carboxamide] |
| – | – | < 25 | – | – | – | – | – | – | – | CCOC(=O)c1c(N)nn2ccc(N3CC(=O)CC3c3cc(F)ccc3F)nc12 (stereo not drawn) [Example 43, ethyl 2-amino-5-(2-(2,5-difluorophenyl)-4-oxopyrrolidin-1-yl)pyrazolo[1,5-a]pyrimidine-3-carboxylate] |
| – | – | < 25 | – | – | – | – | – | – | – | N#Cc1c(N)nn2ccc(N3C[C@@H](O)C[C@@H]3c3cc(F)ccc3F)nc12 [Example 44, 2-amino-5-((2R,4S)-2-(2,5-difluorophenyl)-4-hydroxypyrrolidin-1-yl)pyrazolo[1,5-a]pyrimidine-3-carbonitrile] |
| < 10 | < 1 | < 1 | < 1 | > 10 | < 1 | 276 | 1.67 | 1.46 | 876 | CNC(=O)c1c(N)nn2ccc(N3C[C@@H](F)C[C@@H]3c3cc(F)ccc3F)nc12 [Example 39, 2-amino-5-((2R,4S)-2-(2,5-difluorophenyl)-4-fluoropyrrolidin-1-yl)-N-methylpyrazolo[1,5-a]pyrimidine-3-carboxamide] |
